We go through 11 compounds from US6451834B1, “Indeno[1,2-c]-, naphtho[1,2-c]- and benzo[6,7]cyclohepta[1,2-c]pyrazole derivatives” (BASF Aktiengesellschaft, priority 1997, dated 2002).

Molecules are shown by their SMILES.

The first series deals with T1, KDR tyrosine kinase (Homo sapiens, UniProt P35968).
T1 construct: KDR intra-cellular domain (aa789-1354); poly-His6 (N); made in house; host or cells: SF-9 insect cells, recombinant baculovirus (pVL1393)
T1 sequence (P35968 789-1354): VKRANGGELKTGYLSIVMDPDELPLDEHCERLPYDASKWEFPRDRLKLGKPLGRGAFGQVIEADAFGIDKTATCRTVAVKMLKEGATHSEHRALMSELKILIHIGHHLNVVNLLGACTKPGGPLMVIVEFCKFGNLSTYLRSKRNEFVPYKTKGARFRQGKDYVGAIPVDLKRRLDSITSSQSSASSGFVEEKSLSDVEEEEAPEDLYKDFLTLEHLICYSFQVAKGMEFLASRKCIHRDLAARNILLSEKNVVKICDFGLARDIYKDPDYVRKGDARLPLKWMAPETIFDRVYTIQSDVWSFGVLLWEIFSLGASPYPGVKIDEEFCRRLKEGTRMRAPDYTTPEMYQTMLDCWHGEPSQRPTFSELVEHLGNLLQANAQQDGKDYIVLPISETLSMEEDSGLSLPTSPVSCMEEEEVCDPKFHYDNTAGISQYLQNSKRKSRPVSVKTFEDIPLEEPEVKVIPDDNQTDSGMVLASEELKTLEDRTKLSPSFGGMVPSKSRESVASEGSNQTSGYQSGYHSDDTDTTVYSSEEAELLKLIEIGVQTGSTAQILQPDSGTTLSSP
Kind of series: KDR in vitro ELISA. The format is biochemical. Conditions: ATP 5 μM. A general note: ELISA stands for enzyme-linked immunosorbent assay.
Experimental: The following procedure was used to assay the inhibitory effect of compounds of this invention on KDR tyrosine kinase activity:
Dilute PGT stock (50 mg/ml, frozen) in PBS to a 250 μg/ml. […] Add 125 μl PBS to blank wells. Cover with sealing tape and incubate overnight 37° C. Wash 1× with 250 μl washing buffer and dry for about 2 hrs in 37° C. dry incubator.
Prepare inhibitor solutions at a 4× concentration in 20% DMSO in water.
Prepare enzyme solution so that desired units are in 50 μl, e.g. for KDR make to 1 ng/μl for a total of 50 ng per well in the reactions. Store on ice.
Make 4× ATP solution to 20 μM from 100 mM stock in water. Store on ice.
Add 50 μl of the enzyme solution per well.
Add 25 μl 4× ATP for inhibitor assay.
Incubate for 10 minutes at room temperature.
Stop reaction by adding 50 μl 0.05N HCl per well.
Dilute 1 mg/ml aliquot of PY20-HRP (Pierce) antibody to 50 ng/ml in 0.1% BSA in PBS by a 2 step dilution (100×, then 200×).
Add 100 μl Ab per well. Incubate 1 hr at room temp. Incubate 1 hr at 4C.
Prepare TMB substrate and add 100 μl per well.
Monitor OD at 650 nm until 0.6 is reached.
Stop with 1M Phosphoric acid. Shake on plate reader.
The term IC50 denotes the point on the concentration scale where inhibition reaches its midpoint. Consider `Cc1c2c(nn1-c1ccccc1)-c1ccccc1C2=O`, for which the IC50 is greater than 100 µM. As for `C1=NC(n2nc(-c3ccccc3)cc2-c2ccccc2)NC1` (centres unmarked), the concentration for half-maximal inhibition (IC50) is greater than 100 µM.

The test system of the next series is Human umbilical vein endothelial cells (HUVEC). In words: HUVEC mitogenesis assay. The format is cell-based. The settings on record: 50 ng/ml VEGF, tritiated thymidine, read-out: VEGF-Stimulated Mitogenesis IC50. As to the method:
Human umbilical vein endothelial cells (HUVEC) were cultured in EGM-Complete Media (endothelial growth media supplemented with 10% FBS, hydrocortisone, epidermal growth factor and bovine brain extract as per the supplier's directions). Cells, media and supplements were purchased from Clonetics (San Diego, Calif.). The HUVEC Mitogenesis Assay was used to measure inhibition of mitogenesis induced by VEGF, FGF or Complete Media. Cells were harvested by trypsinization, washed once and suspended in Complete Media (CM) at a concentration of 5,000 cells/0.15 ml. Cells were seeded into 96-well plates at 5,000 cells/well and incubated at 37 C for 24 hours. Cells were washed once with serum-free media (SFM) and incubated under serum-free conditions for 24 hours. Non-serum starved control wells were cultured with CM during this period. Test compounds were prepared as 10 mM stock solutions in DMSO, diluted in SFM and added to wells over a concentration range (0.005-50 μM final concentration). Cells were incubated for 1 hour prior to addition of 50 ng/ml VEGF or FGF (R & D Systems, Minneapolis, Minn.). Complete media stimulated wells received the test compound and stimulus simultaneously. […] Plates were harvested onto filter mats with a Tomtec Harvester and counted with a Betaplate liquid scintillation counter (Wallac).
Consider `c1csc(-c2n[nH]c3c2Cc2ccccc2-3)c1`, for which the IC50 was 2 µM.

System in the next series: not given
Test: not given
Conditions: not given
One may read the melting point as the temperature of the solid-liquid transition. In turn, `c1cncc(-c2n[nH]c3c2Cc2ccccc2-3)c1` [Example 1, 3-(3-Pyridyl)-1,4-dihydroindeno[1,2-c]pyrazole] showed a melting point of 223 to 224 °C. Same read-out and setting: the result for `c1csc(-c2n[nH]c3c2CCc2ccccc2-3)c1` [Example 3, 3-(2-Thienyl)-4,5-dihydro-1H-benz[g]indazole] reads 206 to 208 °C; that for `COc1cccc(-c2n[nH]c3c2Cc2ccccc2-3)c1` [Example 5, 3-(3-methoxyphenyl)-1,4-dihydroindeno[1,2-c]pyrazole], 172 to 174 °C.

Take `COc1ccc(-c2n[nH]c3c2Cc2ccccc2-3)cc1` [Example 6, 3-(4-methoxyphenyl)-1,4-dihydroindeno[1,2-c]pyrazole]: the melting point was 247 °C. On the same count and under the same terms, with `Cc1ccc(-c2n[nH]c3c2Cc2ccccc2-3)cc1` [Example 7, 3-(p-tolyl)-1,4-dihydroindeno[1,2-c]pyrazole] the figure was 267 to 269 °C; with `COc1ccc2c(c1)Cc1c(-c3cccs3)n[nH]c1-2` [Example 8, 6-methoxy-3-(2-thienyl)-1,4-dihydroindeno[1,2-c]pyrazole], 212 to 214 °C; with `c1coc(-c2n[nH]c3c2Cc2ccccc2-3)c1` [Example 9, 3-(2-furyl)-1,4-dihydroindeno[1,2-c]pyrazole], 195 to 197 °C.

As for `c1ccc2c(c1)Cc1c(-c3ccsc3)n[nH]c1-2` [Example 29, 3-(3-thienyl)-1,4-dihydroindeno[1,2-c]pyrazole], the melting point lay in the range of 219 to 220 °C.
